Reference: patent US11535592B2, “Antimicrobial compounds, compositions, and method” (University of Kentucky Research Foundation, priority 2019, dated 2022)
Like-named read-outs stand apart in the source and are kept apart here. Values belong to the compound of their own block, whether it stands above or below them.

How the values were obtained:
[1] = system: Porphyromonas gingivalis 381; assay: Antimicrobial screening by colorimetric WST-1 assay against P. gingivalis; format: cell-based; settings: P. gingivalis 381, FIG. 2, read-out: growth inhibition
Experimental: (§1) The following bacterial strains were used in these studies: Porphyromonas gingivalis 381, Actinomyces naeslundii ATCC 49340, Streptococcus sanguinis ATCC 10556, Veillonella parvula ATCC 10790, Aggregatibacter actinomycetemcomitans JP2, and Fusobacterium nucleatum ATCC 25586. All bacterial strains were initially grown on blood agar plates (BBL, Becton Dickinson, Sparks, Md., USA) from a frozen stock and incubated in appropriate aerobic (for S. sanguinis) or anaerobic (for P. gingivalis, A. naeslundii, V. parvula, A. actinomycetemcomitans, and F. nucleatum) conditions at 37° C. for 24 h or 3 days, respectively. Then, a liquid culture was started for each strain in 3 mL of Brain Hearth infusion (BHI) broth alone or supplemented with 5 μg/mL of hemin and 1 μg/mL of menadione in the case of P. gingivalis. Overnight cultures were inoculated in fresh broth and allowed to reach logarithmic growth for 3-4 h, time at which antimicrobial activity of different treatments was evaluated.
Initial screening for testing the antimicrobial effect of zafirlukast derivatives (4a, 4b, 11a, 11b, 12a, 21a, 21b, 22a, 22b, 23a, and 23b) was performed using the colorimetric water-soluble tetrazolium-1 (WST-1) assay, which serves as a surrogate marker for cell proliferation and viability. Bacterial strains (10^6/well) grown logarithmically in broth (90 μL) using 96-wells plates, were exposed to different treatments for 2 h and then 15 μL of WST-1 reagent (Roche, Manheim, Germany) were added to each well. Plates were incubated for 2 h under appropriate culture conditions and then absorbance was measured at 450 nm, with a reference wavelength of 600 nm, using SpectraMax M2 plate reader (Molecular Devices, Sunnyvale, Calif., USA). The percentage of inhibitory effect (i.e., % growth inhibition) was calculated using the optical densities (ODs) of bacterial metabolic activity, under different experimental conditions according to the following formula: 100×[OD (control)−OD (experimental)/OD (control)]. For P. gingivalis, control cultures were treated only with medium and experimental cultures treated with DMSO (vehicle for zafirlukast and its derivatives) and 1 μg/mL of the antibiotic tetracycline. When tested against A. naeslundii, A. actinomycetemcomitans, S. sanguinis, V. parvula, and F. nucleatum control cultures were treated only with medium and experimental cultures were treated with DMSO (vehicle for zafirlukast and its derivatives), antibiotic penicillin/streptomycin −1× (100 U/mL of penicillin and 100 μg/mL of streptomycin) for Gram-positives and 1 μg/mL of tetracycline for Gram-negative anaerobic bacteria.

[2] = system: OKF6 oral epithelial cells (OKF6/hTERT); assay: cells; format: cell-based; settings: 24 h; for Alive (%) / Dead (%) / Percentage of OKF6 cells alive: human; for IC50: Homo sapiens, OKF6
Experimental: Cytotoxic effect of zafirlukast derivatives in oral epithelial cells. The immortalized oral keratinocyte cell line OKF6/hTERT (OKF6) was used for viability assays in response to zafirlukast derivatives 22b, 23a, and 23b as previously reported. 3, ^4 Cells were cultured in keratinocyte-serum free medium (SFM) supplemented with bovine pituitary extract (25 μg/mL) and recombinant epidermal growth factor (0.2 ng/mL) (Ker-SFM). Cells were maintained at 37° C. in a humidified incubator with 5% CO2.
[…] Cells were then harvested by trypsinization, washed with DMEM medium supplemented with 5% fetal bovine serum at 1100 rpm and resuspended in fresh Ker-SFM. Equal volumes of cell suspension and trypan blue were mixed and 10 μL evaluated in the automated cell counter (Countess II FL) (Life Technologies, Singapure) to determine percentage of alive and death cells. These experiments were performed in two independent experiments by duplicate. […] The IC50 values were calculated by using the Quest Graph™ IC50 calculator (ATT Bioquest, Inc, https://www.aatbio.com/tools/ic50-calculator).

[3] = system: OKF6 oral epithelial cells (OKF6/hTERT); assay: Cell viability of oral epithelial cells (apoptosis and necrosis) by flow cytometry, FITC-Annexin V / propidium iodide; format: cell-based, human; settings: 24 h
Experimental: Cytotoxic effect of zafirlukast derivatives in oral epithelial cells. The immortalized oral keratinocyte cell line OKF6/hTERT (OKF6) was used for viability assays in response to zafirlukast derivatives 22b, 23a, and 23b as previously reported. 3, ^4 Cells were cultured in keratinocyte-serum free medium (SFM) supplemented with bovine pituitary extract (25 μg/mL) and recombinant epidermal growth factor (0.2 ng/mL) (Ker-SFM). Cells were maintained at 37° C. in a humidified incubator with 5% CO2. Cytotoxic effects of zafirlukast derivatives were confirmed by flow cytometry analysis (FACS). After different treatments, attached OKF6 cells were harvested by trypsinization and mixed with cells that were previously rescued from supernatants. Cells were washed with PBS at 1100 rpm for 5 min and further labeled with 5 μL of FITC-Annexin V and 5 μL of propidium iodide (BD Pharmingen, San Jose, Calif.) for 15 min at room temperature. Labeled cells were analyzed by FACS, with at least 10,000 events read at wavelengths averaging 488 nm for excitation and 530 nm for emission in a flow cytometer FACSCalibur (Becton Dickinson, San Jose, Calif.).

[4] = system: Porphyromonas gingivalis 381; assay: Bactericidal effect on P. gingivalis by colony forming units (CFU) assay; format: cell-based; settings: 24 h exposure, 7 days incubation, FIG. 4; for bacteriostatic or bactericidal: 100 μM, CFU
Experimental: as §1
P. gingivalis (10^6/well) grown in appropriate medium and anaerobic conditions was exposed to zafirlukast derivatives dissolved in DMSO for 24 h and further 50 μL of bacterial culture dilutions (1:400) were spread onto blood agar plates. Numbers of CFUs were obtained after 7 days of incubation in appropriate anaerobic conditions.

[5] = 0-100 μM in triplicate, Quest Graph IC50 calculator, read-out: IC50 (OKF6 cell viability)

SMILES: O=C(NS(=O)(=O)c1ccccc1)c1ccc(Cc2c[nH]c3ccccc23)cc1 [Compound 11a]
inhibition at 10 µM [1]: ~40%

Alive (%) ([2]; 25 μM): 17.3 ± 5.2%
Dead (%) ([2]; 25 μM): 82.8 ± 5.2%
SMILES: COc1cc(C(=O)NS(=O)(=O)c2ccccc2C)ccc1Cc1cn(C)c2ccc(NC(=O)OC3CCCC3)cc12 [Zafirlukast, zafirlukast, reference compound]
Apoptosis (%) ([3]; 25 μM, FACS (Table 3, FIG. 7)): 90.8 ± 2.5%
Necrosis (%) ([3]; 25 μM, FACS (Table 3, FIG. 7)): 0.65 ± 0.58%
Viable ([3]; 25 μM, FACS (Table 3, FIG. 7)): 8.53 ± 3.08%

Dead (%) ([2]; 1 μM): 8.5 ± 1.7%
Percentage of OKF6 cells alive ([2]; 1 μM): 69.3 ± 9.6%
Percentage of OKF6 cells alive ([2]; 2.5 μM): 41.0 ± 1.0%
Percentage of OKF6 cells alive ([2]; 5 μM): 66.0 ± 5.6%
Alive (%) ([2]; 10 μM): 40.8 ± 16.6%
Dead (%) ([2]; 10 μM): 59.3 ± 16.6%
Percentage of OKF6 cells alive ([2]; 10 μM): 38.3 ± 4.9%
Percentage of OKF6 cells alive ([2]; 15 μM): 41.0 ± 17.3%
Percentage of OKF6 cells alive ([2]; 20 μM): 22.7 ± 11.7%
Percentage of OKF6 cells alive ([2]; 25 μM): 47.0 ± 20.0%
Percentage of OKF6 cells alive ([2]; 50 μM): 33.0 ± 15.1%
Percentage of OKF6 cells alive ([2]; 100 μM): 12.3 ± 11.0%
SMILES: COc1ccc(Cc2cn(C)c3ccccc23)cc1C(=O)NS(=O)(=O)c1ccccc1C [Compound 22b]
inhibition at 1 µM [1]: 15 to 40%
inhibition at 10 µM [1]: 90 to 100%
IC50 [2, 5]: 16 µM
Apoptosis (%) ([3]; human, 1 μM): 23.7 ± 16.6%
Necrosis (%) ([3]; human, 1 μM): 2.16 ± 1.62%
Viable ([3]; human, 1 μM): 74.1 ± 18.1%
Apoptosis (%) ([3]; human, 10 μM): 29.6 ± 19.1%
Necrosis (%) ([3]; human, 10 μM): 1.37 ± 0.39%
Viable ([3]; human, 10 μM): 69.1 ± 18.9%

SMILES: Cn1cc(Cc2ccc(C(=O)NS(=O)(=O)c3ccccc3)cc2)c2ccccc21 [Compound 12a]
inhibition at 10 µM [1]: 90 to 100%

SMILES: Cc1ccccc1S(=O)(=O)NC(=O)c1ccc(Cc2c[nH]c3ccccc23)cc1 [Compound 11b]
inhibition at 10 µM [1]: ~90%

SMILES: COc1cc(C(=O)NS(=O)(=O)c2ccccc2C)ccc1Cc1cn(C)c2ccccc12 [Compound 4b]
inhibition at 100 µM [1]: > 60%

SMILES: COc1cc(C(=O)NS(=O)(=O)c2ccccc2)ccc1Cc1cn(C)c2ccccc12 [Compound 4a]
inhibition at 100 µM [1]: > 60%

Dead (%) ([2]; 1 μM): 20.5 ± 16.4%
Percentage of OKF6 cells alive ([2]; 1 μM): 68.0 ± 5.0%
Percentage of OKF6 cells alive ([2]; 2.5 μM): 70.7 ± 10.3%
Percentage of OKF6 cells alive ([2]; 5 μM): 55.3 ± 8.1%
Alive (%) ([2]; 10 μM): 73.8 ± 4.1%
Dead (%) ([2]; 10 μM): 26.3 ± 4.1%
Percentage of OKF6 cells alive ([2]; 10 μM): 49.0 ± 16.1%
Percentage of OKF6 cells alive ([2]; 15 μM): 50.3 ± 9.5%
Percentage of OKF6 cells alive ([2]; 20 μM): 48.0 ± 6.1%
Percentage of OKF6 cells alive ([2]; 25 μM): 54.0 ± 7.8%
Percentage of OKF6 cells alive ([2]; 50 μM): 45.3 ± 13.1%
Percentage of OKF6 cells alive ([2]; 100 μM): 15.7 ± 7.1%
SMILES: COc1ccc(Cc2cn(C)c3ccc([N+](=O)[O-])cc23)cc1C(=O)NS(=O)(=O)c1ccccc1 [Compound 23a]
inhibition at 1 µM [1]: 15 to 40%
inhibition at 10 µM [1]: 90 to 100%
bacteriostatic or bactericidal [4]: bactericidal
inhibition at 1 µM ([4]; Porphyromonas gingivalis, 381, 1 μM, read-out: growth inhibition (CFU)): ~60%
inhibition at 10 µM ([4]; Porphyromonas gingivalis, 381, 10 μM, read-out: growth inhibition (CFU)): 100%
IC50 [2, 5]: 54 µM
Apoptosis (%) ([3]; human, 1 μM): 38.5 ± 27.5%
Necrosis (%) ([3]; human, 1 μM): 0.69 ± 0.46%
Viable ([3]; human, 1 μM): 60.9 ± 27.4%
Apoptosis (%) ([3]; human, 10 μM): 44.2 ± 26.9%
Necrosis (%) ([3]; human, 10 μM): 2.81 ± 2.31%
Viable ([3]; human, 10 μM): 53.2 ± 29.0%

SMILES: COc1ccc(Cc2c[nH]c3ccccc23)cc1C(=O)NS(=O)(=O)c1ccccc1C [Compound 21b]
inhibition at 10 µM [1]: ~80%

SMILES: COc1ccc(Cc2c[nH]c3ccccc23)cc1C(=O)NS(=O)(=O)c1ccccc1 [Compound 21a]
inhibition at 10 µM [1]: ~40%

Dead (%) ([2]; 1 μM): 17.3 ± 9.5%
Percentage of OKF6 cells alive ([2]; 1 μM): 83.7 ± 9.1%
Percentage of OKF6 cells alive ([2]; 2.5 μM): 87.7 ± 3.8%
Percentage of OKF6 cells alive ([2]; 5 μM): 87.0 ± 2.6%
Alive (%) ([2]; 10 μM): 48.3 ± 17.5%
Dead (%) ([2]; 10 μM): 51.8 ± 17.5%
Percentage of OKF6 cells alive ([2]; 10 μM): 83.0 ± 5.3%
Percentage of OKF6 cells alive ([2]; 15 μM): 79.0 ± 5.3%
Percentage of OKF6 cells alive ([2]; 20 μM): 75.3 ± 3.8%
Percentage of OKF6 cells alive ([2]; 25 μM): 77.0 ± 2.6%
Percentage of OKF6 cells alive ([2]; 50 μM): 69.0 ± 7.5%
Percentage of OKF6 cells alive ([2]; 100 μM): 58.7 ± 4.2%
SMILES: COc1ccc(Cc2cn(C)c3ccc([N+](=O)[O-])cc23)cc1C(=O)NS(=O)(=O)c1ccccc1C [Compound 23b]
inhibition at 1 µM [1]: 15 to 40%
inhibition at 10 µM [1]: 90 to 100%
bacteriostatic or bactericidal [4]: bactericidal
IC50 [2, 5]: > 100 µM
IC50 ([2]; estimated beyond the highest concentration tested (100 μM), read-out: IC50 (OKF6 cell viability), estimated): ~230 µM
Apoptosis (%) ([3]; human, 1 μM): 24.8 ± 13.9%
Necrosis (%) ([3]; human, 1 μM): 1.08 ± 0.17%
Viable ([3]; human, 1 μM): 74.4 ± 13.8%
Apoptosis (%) ([3]; human, 10 μM): 35.8 ± 21.3%
Necrosis (%) ([3]; human, 10 μM): 2.23 ± 1.18%
Viable ([3]; human, 10 μM): 61.7 ± 22.2%
